CC50, IC50 and EC50 data for 31 compounds are collected here from patent publication US10358453B2, “Antiviral compounds” (priority 2015, dated 2019).

Series [1] is described as follows: Cytotoxicity determination (CCK-8, without addition of virus). Format: cell-based. Conditions: human, HEp-2 cells (uninfected), no virus, Table C = greater than 100 μM, Table D = equal to or less than 100 μM and greater than 10 μM. On the procedure: CPE reduction assays are performed as described by Sidwell and Huffman et al., Appl. Microbiol. (1971) 22(5):797-801 with slight modifications. HEp-2 cells (ATCC#, CCL-23) are seeded at a density of 1,500 cells/30 μL/well into the 384-well cell plate(s) (Corning#3701) one day prior to the assay. Compounds are added into 384-well cell plates by Labcyte POD 810 Plate Assembler system. Each of the test compounds is provided to duplicate wells of a 384-well cell plate at final concentrations starting from 100 μM or 1 μM using 1/3 stepwise dilutions for 9 points. Quick-thaw Respiratory Syncytial Virus (RSV) long strain (ATCC#VR-26) stock in a 37° C. water bath. Place on ice until ready to use. Viruses are diluted to the concentration of 100 TCID50/30 μL with medium and 30 μl diluted RSV are added into related wells of 384-well cell plates. For each plate, sixteen wells are set aside as uninfected, untreated cell controls (CC), and nine wells per test plate receive virus only as a control for virus replication (VC). The final DMSO concentration of all wells is 1%. Place the plates at 37° C., 5% CO2 for 5 days.
In order to determine the compound cytotoxicity, in parallel, each of the compounds is applied to duplicate wells in a 384-well cell plate at serial final concentrations starting from 100 μM using ½ stepwise dilutions for 7 points without addition of virus. Incubate the cells at 37° C., 5% CO2 for 5 days. Add 6 μL CCK-8 into each well and incubate in a CO2 incubator at 37° C. for 3-4 h. Read the plates to obtain the optical densities which are used to calculate 50% cytotoxicity concentration (CC50).

In another series the target is recombinant RSV complex (Human respiratory syncytial virus A, UniProt P28887). In words: RSV polymerase inhibition assay. Format: biochemical. The note with it: 10 nM recombinant RSV complex, 2 h at 30° C.; Table E = <1 μM, Table F = <50 μM; read-out: IC50. How it is done: Standard RSV polymerase assays were conducted in the presence of 10 nM recombinant RSV complex in a reaction buffer containing Tris-HCl pH7.5, 6 mM MgCl2, and other additives and substrates including RNA oligonucleotides and radionucleotides. Standard reactions were incubated in 96-well plate format for 2 h at 30° C., in the presence of increasing concentration of inhibitor. The reaction was stopped with 90 μL of 0.1M EDTA, and the reaction product was transferred to a “reading” 96-well plate. After washing of the plate, radiolabeled RNA products were detected according to standard procedures with a Trilux Topcount scintillation counter. The compound concentration at which the enzyme-catalyzed rate was reduced by 50% (IC50) was calculated by fitting the data to a non-linear regression (sigmoidal).
Sequence of recombinant RSV complex (P28887 whole entry): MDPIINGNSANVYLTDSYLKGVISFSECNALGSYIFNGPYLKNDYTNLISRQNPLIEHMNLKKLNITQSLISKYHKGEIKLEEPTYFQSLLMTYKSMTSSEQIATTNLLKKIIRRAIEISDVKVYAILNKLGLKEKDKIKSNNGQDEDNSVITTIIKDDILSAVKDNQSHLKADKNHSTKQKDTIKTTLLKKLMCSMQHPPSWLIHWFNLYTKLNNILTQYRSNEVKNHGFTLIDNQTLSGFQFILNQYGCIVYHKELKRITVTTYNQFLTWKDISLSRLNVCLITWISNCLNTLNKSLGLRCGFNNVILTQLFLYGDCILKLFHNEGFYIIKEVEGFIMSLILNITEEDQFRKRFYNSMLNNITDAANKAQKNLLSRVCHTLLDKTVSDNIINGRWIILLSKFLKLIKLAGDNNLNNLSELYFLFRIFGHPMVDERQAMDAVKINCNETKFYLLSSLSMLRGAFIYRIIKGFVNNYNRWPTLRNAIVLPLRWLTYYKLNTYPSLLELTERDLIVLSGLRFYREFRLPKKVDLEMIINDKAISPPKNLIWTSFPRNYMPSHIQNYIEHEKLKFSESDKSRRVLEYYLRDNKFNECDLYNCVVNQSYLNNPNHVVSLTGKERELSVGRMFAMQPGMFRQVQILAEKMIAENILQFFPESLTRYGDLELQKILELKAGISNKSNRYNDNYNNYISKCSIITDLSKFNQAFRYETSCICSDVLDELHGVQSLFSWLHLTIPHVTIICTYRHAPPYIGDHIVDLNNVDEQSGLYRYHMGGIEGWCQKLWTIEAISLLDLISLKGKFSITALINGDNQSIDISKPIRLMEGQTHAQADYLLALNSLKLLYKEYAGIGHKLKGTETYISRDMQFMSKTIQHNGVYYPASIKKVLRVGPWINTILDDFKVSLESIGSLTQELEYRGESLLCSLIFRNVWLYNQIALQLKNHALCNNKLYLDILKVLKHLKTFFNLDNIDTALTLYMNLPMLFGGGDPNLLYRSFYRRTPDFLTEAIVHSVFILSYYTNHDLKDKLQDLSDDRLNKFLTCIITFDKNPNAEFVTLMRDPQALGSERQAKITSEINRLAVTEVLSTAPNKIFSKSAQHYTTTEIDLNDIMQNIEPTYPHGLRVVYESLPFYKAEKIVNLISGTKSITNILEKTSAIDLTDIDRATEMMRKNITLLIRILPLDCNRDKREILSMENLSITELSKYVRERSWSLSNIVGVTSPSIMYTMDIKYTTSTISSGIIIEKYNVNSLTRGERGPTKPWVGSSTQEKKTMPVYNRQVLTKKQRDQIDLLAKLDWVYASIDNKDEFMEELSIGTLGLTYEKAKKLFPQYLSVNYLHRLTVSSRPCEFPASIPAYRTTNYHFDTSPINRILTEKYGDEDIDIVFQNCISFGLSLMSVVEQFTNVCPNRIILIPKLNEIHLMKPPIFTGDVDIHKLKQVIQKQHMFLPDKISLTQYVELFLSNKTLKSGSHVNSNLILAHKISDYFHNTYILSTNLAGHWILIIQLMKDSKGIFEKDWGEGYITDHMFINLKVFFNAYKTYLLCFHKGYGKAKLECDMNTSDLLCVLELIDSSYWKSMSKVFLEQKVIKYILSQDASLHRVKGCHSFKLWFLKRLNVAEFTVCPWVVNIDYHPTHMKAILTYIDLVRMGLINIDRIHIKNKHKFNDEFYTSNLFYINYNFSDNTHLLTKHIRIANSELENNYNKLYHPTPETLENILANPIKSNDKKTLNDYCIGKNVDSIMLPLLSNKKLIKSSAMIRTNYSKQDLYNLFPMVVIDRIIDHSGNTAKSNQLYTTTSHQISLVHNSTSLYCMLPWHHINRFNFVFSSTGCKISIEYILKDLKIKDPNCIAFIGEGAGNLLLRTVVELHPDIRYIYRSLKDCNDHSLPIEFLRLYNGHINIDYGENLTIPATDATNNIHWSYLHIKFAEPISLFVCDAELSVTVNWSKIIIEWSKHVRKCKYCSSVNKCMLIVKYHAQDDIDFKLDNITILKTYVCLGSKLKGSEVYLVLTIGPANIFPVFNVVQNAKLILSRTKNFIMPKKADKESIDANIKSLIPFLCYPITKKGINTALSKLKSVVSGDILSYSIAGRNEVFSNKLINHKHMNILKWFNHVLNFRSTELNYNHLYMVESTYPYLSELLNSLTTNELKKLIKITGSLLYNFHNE
Sequence of recombinant RSV complex (P03421 whole entry, further chain): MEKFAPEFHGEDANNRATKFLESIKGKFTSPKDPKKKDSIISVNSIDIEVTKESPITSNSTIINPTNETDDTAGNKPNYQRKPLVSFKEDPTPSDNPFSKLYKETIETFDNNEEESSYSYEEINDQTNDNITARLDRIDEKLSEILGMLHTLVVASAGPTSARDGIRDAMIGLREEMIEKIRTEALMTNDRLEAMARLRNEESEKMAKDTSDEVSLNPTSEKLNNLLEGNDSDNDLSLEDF

The subject of series [2] is RSV subgenomic replicon 395 HeLa and APC126. The experiment in a line: RSV subgenomic replicon assay (Renilla luciferase). Conditions: RSV replicon cells (395 HeLa 7 days or APC126 3 days), Table G = less than 1 μM, Table H = equal to or higher than 1 μM and less than 50 μM. Format: cell-based. An excerpt:
The RSV subgenomic replicon 395 HeLa and APC126 were licensed from Apath (Brooklyn, N.Y.) and were originally developed by Dr. Mark Meeples of Center for Vaccines & Immunity, the Research Institute at Nationwide Children's Hospital in Columbus, Ohio. To generate subgenomic RSV replicon, three glycoprotein genes, those for SH, G, and F, from a full-length recombinant GFP-expressing (rg) RSV antigenomic cDNA were deleted. In their place, a blasticidin S deaminase (bsd) gene was inserted. Through multiple steps, the RSV replicon was established in HeLa cells (395 Hela) or BHK cells (APC126). Both 395 HeLa and APC126 cells were cultured in Dulbecco's Modified Eagle Medium (DMEM) containing 4500 mg/L D-glucose, L-glutamine, and 110 mg/L sodium pyruvate (Invitrogen, Cat. #11995-040). The medium was further supplemented with 10% (v/v) fetal bovine serum (FBS) (Mediatech, Cat. #35-010-CV), 1% (v/v) penicillin/streptomycin (Mediatech, Cat. #30-002-CI), and 10 μg/mL of Blasticidin (BSD) (Invivogen, Cat. code ant-bl-1). Cells were maintained at 37° C. in a humidified 5% CO2 atmosphere.
Determination of 50% inhibitory concentration (EC50), 90% inhibitory concentration (EC90) and 50% cytotoxic concentration (CC50) in RSV replicon cells were performed by the following procedure. On the first day, 5000 RSV replicon cells per well were plated in a 96-well plate. On the following day, compounds to be tested were solubilized in 100% DMSO to 100X the desired final testing concentration. Each compound was serially diluted (1:3) up to 9 distinct concentrations. Compounds in 100% DMSO were reduced to 10% (v/v) DMSO by diluting 1:10 in cell culture media. A 10 μL sample of the compounds diluted to 10% (v/v) DMSO with cell culture media was used to treat the RSV replicon cells in 96-well format. The final DMSO concentration was 1% (v/v). Cells were incubated with compounds for 7 days (for 395Hela) or 3 days (for APC126) at 37° C. in a 5% CO2 atmosphere. In each assay, positive control that was previously characterized in the RSV replicon assay was included.
The Renilla Luciferase Assay System (Promega, Cat. #E2820) was used to measure anti-RSV replicon activity. Assay plates were set up as stated above. Luminescence was recorded using a Perkin Elmer multilabel counter Victor3V. EC50, the concentration of the drug required for reducing RSV replicon RNA by 50% in relation to the untreated cell control value, was calculated from the plot of percentage reductions of the […] against the drug concentrations using the Microsoft Excel forecast function.

[3] abbreviates: human respiratory syncytial virus.

For `COc1cc(C(=O)NC[C@@](O)(c2cc3c(c(-c4ccc(F)cc4)n2)NC[C@@]3(C)N)C(F)(F)F)ccc1OC[C@@H](C)O` [Compound 69], the CC50 (usually the concentration at which the toxic effect on the cells reaches its halfway point) at 5 days in series [1] fell in the range of 10000 to 100000 nM. For the same compound, the IC50 (usually the concentration at which inhibition is half-maximal) at recombinant RSV complex is under 1000 nM. The EC50 (in general, the concentration at which the effect is half-maximal) in series [2] (setting [3]) is under 1000 nM. With `C[C@@]1(N)COc2c1cc([C@](O)(CNC(=O)c1cc(OC(F)F)c3[nH]ccc3c1)C(F)(F)F)nc2-c1ccc(F)cc1` [Compound 94], the CC50 at 5 days in series [1] was 10000 to 100000 nM. Also, the 50% inhibitory concentration (IC50) at recombinant RSV complex was under 1000 nM. Moreover, the EC50 in series [2] (setting [3]) was under 1000 nM. Take `COc1cc(C(=O)NC[C@@](O)(c2cc3c(c(-c4ccc(F)cc4)n2)OC[C@@]3(C)NO)C(F)(F)F)ccc1OC[C@@H](C)O` [Compound 123]: the CC50 at 5 days in series [1] lay within 10000 to 100000 nM. Moreover, the IC50 on recombinant RSV complex was under 1000 nM. In addition, the EC50 in series [2] (setting [3]) was under 1000 nM. Turning to `CC1(N)COc2c1cc(C(O)(CNC(=O)c1ccc(OC3CC3)c(OC3CC3)c1)C(F)(F)F)nc2-c1ccc(F)cc1` (centres unmarked) [Compound 25], the CC50 at 5 days in series [1] was 10000 to 100000 nM. At recombinant RSV complex, the IC50 is under 1000 nM. The matching figures for `COc1cc(C(=O)NCC(O)(c2cc3c(c(-c4ccc(F)cc4)n2)OCC32CCN2)C(F)(F)F)ccc1OCCO` (centres unmarked) [Compound 109]: 10000 to 100000 nM and under 1000 nM.

Consider `COc1cc(C(=O)NC[C@@](O)(c2cc3c(c(-c4ccc(F)cc4)n2)OC[C@@]3(C)N)C(F)(F)F)ncc1OCCO` [Compound 77], for which the IC50 at recombinant RSV complex is under 1000 nM. Consider `CC[C@]1(N)COc2c1cc([C@](O)(CNC(=O)c1ccc(OC[C@@H](C)O)c(OC)c1)C(F)(F)F)nc2-c1ccc(F)cc1` [Compound 133], for which the IC50 at recombinant RSV complex was under 1000 nM. The same measure, in the same setting: the value for `COc1cc(C(=O)NC[C@](O)(c2cc3c(c(-c4ccc(F)cc4)n2)NC[C@]3(C)N)C(F)(F)F)ccc1OCCO` (single isomer, unassigned) [Compound 53] was under 1000 nM. In the case of `CC1(N)COc2c1cc(C(O)(CNC(=O)c1ccc3c(c1)OCCN3CCO)C(F)(F)F)nc2-c1ccc(F)cc1` (centres unmarked) [Compound 33], the IC50 at recombinant RSV complex was under 1000 nM. The compound also had an EC50 in series [2] (setting [3]) of under 1000 nM. For the compound `COc1cc(C(=O)NCC(O)(c2cc3c(c(-c4ccc(F)cc4)n2)OCC3(C)N)C(F)(F)F)ccc1C#CCO` (centres unmarked) [Compound 28], the IC50 at recombinant RSV complex is under 1000 nM. This compound also registered an EC50 in series [2] (setting [3]) of under 1000 nM.

With `CC(C)(N)c1cc(-c2ccc(F)cc2)nc([C@](O)(CNC(=O)c2ccc(OCCO)c(OC3CC3)c2)C(F)(F)F)c1` [Compound 56], at recombinant RSV complex, the IC50 was under 1000 nM. For `COc1cc(C(=O)NC[C@@](O)(c2cc3c(c(-c4ccc(F)cc4)n2)NCC[C@]3(C)N)C(F)(F)F)ccc1OC[C@@H](C)O` [Compound 100], the IC50 at recombinant RSV complex was under 50000 nM. As to `COc1cc(C(=O)NCC(O)(c2cn(C(C)(C)CN)cc(-c3ccc(F)cc3)c2=O)C(F)(F)F)ccc1OCCO` (centres unmarked) [Compound 78], at recombinant RSV complex, the IC50 is under 50000 nM.

Regarding `C[C@@]1(N)CNc2c1cc([C@](O)(CNC(=O)c1ccc(OC3CC3)c(OC3CC3)c1)C(F)(F)F)nc2-c1ccc(F)cc1` [Compound 126], the IC50 on recombinant RSV complex is under 1000 nM. The compound further registered an EC50 in series [2] of under 1000 nM. Consider `CC1(N)COc2c1cc(C(O)(CNC(=O)c1cc3c(c(OC4CC4)c1)OC(=O)NC3)C(F)(F)F)nc2-c1ccc(F)cc1` (centres unmarked) [Compound 32], for which, on recombinant RSV complex, the IC50 was under 1000 nM. On the same count and under the same terms, the value for `COc1cc(C(=O)NCC(O)(c2cc3c(c(-c4ccc(F)cc4)n2)OCC3(C)N)C(F)(F)F)cc2c1NC(=O)C2` (centres unmarked) [Compound 9] was under 1000 nM; that for `COc1ccc(C(=O)NCC(N)(c2cc(C(C)(C)N)cc(-c3ccc(F)cc3)n2)C(F)(F)F)cc1OCCO` (centres unmarked) [Compound 42] was under 1000 nM. For `COc1cc(C(=O)NCC(O)(c2cc3c(c(-c4ccc(F)cc4)n2)OC[C@@]3(C)N)C(F)(F)F)cc2c1OC(=O)NC2` (some centres unmarked) [Compound 17], the IC50 on recombinant RSV complex is under 1000 nM. For `COc1cc(C(=O)NCC(O)(c2cc3c(c(-c4ccccc4)n2)OCC3(C)N)C(F)(F)F)ccc1OCCO` (centres unmarked) [Compound 27], the half-maximal cytotoxic concentration (CC50) at 5 days in series [1] was 10000 to 100000 nM. The concentration for half-maximal inhibition (IC50) on recombinant RSV complex is under 1000 nM.

On to `CC1(N)COc2c1cc(C(O)(CNC(=O)c1ccc(OC3CC3)c(OCCO)c1)C(F)(F)F)nc2-c1ccc(F)cc1` (centres unmarked) [Compound 35], for which the IC50 at recombinant RSV complex was under 1000 nM.

In series [1], `COc1cc(C(=O)NCC(O)(c2cc(C3(C)CCNC3)cc(-c3ccc(F)cc3)n2)C(F)(F)F)ccc1OCCO` (centres unmarked) [Compound 116] gave a CC50 at 5 days of 10000 to 100000 nM. Further, the IC50 on recombinant RSV complex is under 1000 nM. The corresponding values for `COc1cc(C(=O)NC[C@@](O)(c2cc3c(C)c[nH]c3c(-c3ccc(F)cc3)n2)C(F)(F)F)ccc1OCCO` [Compound 111] are 10000 to 100000 nM and under 1000 nM. `COc1cc(C(=O)NCC(O)(c2nc(-c3ccc(F)cc3)n3ccccc23)C(F)(F)F)ccc1OCCO` (centres unmarked) [Compound 137]: the IC50 on recombinant RSV complex is under 1000 nM.

Regarding `COc1cc(C(=O)NC[C@@](O)(c2cc3c(c(-c4ccc(F)cc4)n2)OC[C@@]3(C)N)C(F)(F)F)cc2ccn(CCO)c12` [Compound 89], the IC50 at recombinant RSV complex is under 1000 nM.

For `COc1cc(C(=O)NC[C@@](O)(c2cc3c(c(-c4ccc(F)cc4)n2)OC[C@@]3(C)N)C(F)(F)F)cc2c1NCCC2` [Compound 96], the IC50 on recombinant RSV complex is under 1000 nM. The EC50 in series [2] (setting [3]) was under 1000 nM. Consider `COc1nc(C(=O)NCC(O)(c2cc3c(c(-c4ccc(F)cc4)n2)OCC3(C)N)C(F)(F)F)cc2oc(=O)[nH]c12` (centres unmarked) [Compound 48], for which the CC50 at 5 days in series [1] lay within 10000 to 100000 nM. Besides, the IC50 on recombinant RSV complex is under 50000 nM. For the compound `COc1cc(C(=O)NCC(O)(c2nc(-c3ccc(F)cc3)c3ccccn23)C(F)(F)F)ccc1OCCO` (centres unmarked) [Compound 54], the IC50 at recombinant RSV complex is under 50000 nM. The same measure, in the same setting: under `CC(C)(N)c1cc(-c2ccc(F)cc2)nc([C@](O)(CNC(=O)c2ccc(OC3CC3)c(OCCO)c2)C(F)(F)F)c1` [Compound 58] stands under 1000 nM. The compound `C[C@@]1(N)COc2c1cc([C@](O)(CNC(=O)c1ccc(Cl)s1)C(F)(F)F)nc2-c1ccc(F)cc1` [Compound 110] returned a 50% cytotoxic concentration (CC50) at 5 days in series [1] of 10000 to 100000 nM.

For the compound `COc1nc(C(=O)NC[C@@](O)(c2cc3c(c(-c4ccc(F)cc4)n2)NC[C@@]3(C)N)C(F)(F)F)cc2c1NC(=O)C2` [Compound 99], the IC50 on recombinant RSV complex is under 1000 nM. With `CC1(N)COc2c1cc(C(O)(CNC(=O)c1cnc(OCCO)cc1O)C(F)(F)F)nc2-c1ccc(F)cc1` (centres unmarked) [Compound 46], the CC50 at 5 days in series [1] was over 100000 nM.
